Where “and” joins values, the source holds several entries; their conditions need not be identical. Equal entries are not always repeated.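 Growth conditions: 96-well plates. Treatment: test compound, 48 hours, 5 concentrations. Analysis: linear interpolation between bracketing concentrations; unreached endpoints set to highest concentration. The concentration for 50% growth inhibition is given as GI50. TGI: total growth inhibition.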 Where a SMILES comes first, the peptide text is derived from it. [ ]: non-standard residue; d: D form. The star is where a group is joined. ξ: configuration not given here. X6 = FC(F)(F)c1cc(NC(=S)*)cc(C(F)(F)F)c1; ξF = NC(Cc1ccccc1)C(=O)O A value given as a limit tells only on which side of the number the result lay.

In this experiment the test system is MDA-MB-468 breast. Put plainly: growth of human tumour cells (NCI), 48 h.
`OCc1ccc(N2CCC2c2ccc(F)cc2)cc1Cl` (stereo not given): the GI50 was 30.4 nM and the TGI is 0.251 µM.

Turning to `CC(C)CCC[C@@H](C)[C@H]1CC[C@H]2[C@@H]3CC=C4C[C@@H](C(C(=O)O)C(=O)O)CC[C@]4(C)[C@H]3CC[C@]12C`, the GI50 was 337 nM and the TGI came to 0.892 µM.

`O=C(/C=C/C12c3ccccc3C(c3ccccc31)C1C(=O)NC(=O)C12)c1ccncc1` (stereo not given): the GI50 was 1820 nM and the TGI worked out at 4.02 µM.

As for `Cc1nc2ccccc2c(N)c1-c1cc(C)c2c(C)nc3ccccc3c2n1`, the GI50 is 1640 nM and the TGI turned out to be 3.73 µM.

For `Cn1cc(C2=C(c3cn(C)c4ncccc34)C(=O)NC2=O)c2ccccc21`, the GI50 is 5470 nM and the TGI was more than 25 µM.

Turning to `COc1ccc2c(C3=C(c4cn(C)c5ccccc45)C(=O)NC3=O)cn(C)c2c1`, the GI50 was 112 nM and the TGI was 10.2 µM.

For `O=C(Nc1ccc(Cl)c(Cl)c1)Nc1ccc(Cl)c(Cl)c1`, the GI50 was 1840 nM and 2210 nM; the TGI is 6.69 µM and 6.1 µM.

Take `CCC(CO)Nc1nc2ccc(Cl)cc2c2ccccc12` (stereo not given): the GI50 is 5280 nM and the TGI turned out to be 19.5 µM.

On to `NC(=O)c1cccc2cn(-c3ccc([C@@H]4CCCNC4)cc3)nc12`, for which the GI50 was 6090 nM and the TGI was found to be 18.9 µM.

With `CO[C@H](C(=O)[C@@H](O)[C@@H](C)O)[C@@H]1Cc2cc3cc(O[C@H]4C[C@@H](O[C@H]5C[C@@H](O)[C@H](O)C(C)O5)[C@H](O)C(C)O4)c(C)c(O)c3c(O)c2C(=O)[C@H]1O[C@H]1C[C@@H](O[C@H]2C[C@@H](O[C@H]3C[C@](C)(O)C(=O)C(C)O3)[C@@H](O)C(C)O2)[C@H](O)C(C)O1` (stereo not given in full), the GI50 was 68.4 nM and the TGI came to 0.515 µM.

Consider `O=C1CC(c2ccc3c(c2)OCO3)Nc2ccccc21` (stereo not given), for which the GI50 was 4220 nM and the TGI was determined as 23.9 µM.

Regarding `COC1CCC(N2C(=O)CNc3ncc(-c4ccc(C(C)(C)O)nc4)nc32)CC1` (stereo not given), the GI50 was 430 nM and 407 nM; the TGI is 3.51 µM and 5.38 µM.

For `C#Cc1ccc(-n2c(/C=C/c3ccc(C(F)(F)F)cc3)nc3ncccc3c2=O)cc1`, the GI50 was 1510 nM and the TGI is 3.63 µM.

For the compound `COc1cc(-c2nn(-c3ccc(NC(=O)c4ccc(Cl)c(C(F)(F)F)c4)cc3)cc2-c2ccncc2)ccc1Cl`, the GI50 is 2950 nM and the TGI was found to be 16 µM.

For `Nc1nc(-c2cccc([N+](=O)[O-])c2)c(N=Nc2cccc([N+](=O)[O-])c2)s1`, the GI50 is 30500 nM and the TGI was more than 100 µM.

For the compound `O=C1/C(=C/c2cccc([N+](=O)[O-])c2)COc2ccc(O)cc21`, the GI50 was 2260 nM and the TGI is 5 µM.

Consider `COC(=O)[C@@H](NC(=O)CNC(=O)[C@H]1CCCN1C(=O)C(Cc1ccccc1)NC(=S)Nc1cc(C(F)(F)F)cc(C(F)(F)F)c1)C(C)C` (stereo not given in full) (X6-[ξF][dP]GV-OMe), for which the GI50 is 1500 nM and the TGI amounted to 3.23 µM.

For `CCCCCN(CCCCC)CCCNc1c2c(nc3ccc(Cl)cc13)CCCC2`, the GI50 was 2440 nM and the TGI came out at 6.31 µM.

With `COC1=CC(c2ccc[nH]2)=N/C1=C\c1[nH]c(C)c(C(=O)OC(C)C)c1C`, the GI50 is 111 nM and the TGI was found to be 1.39 µM.

Consider `CC/C=C\CCC/C=C1/C(=O)C=C[C@@H]1C/C=C\CCCC(=O)OC`, for which the GI50 is 3200 nM and the TGI was found to be 10.1 µM.

On to `Clc1ccc2c(NCCCCNc3nc(N4CCCCC4)nc4ccccc34)ccnc2c1`, for which the GI50 was 1640 nM and the TGI was 3.63 µM.

Regarding `COc1ccc2[nH]cc(-c3csc4nc(-c5ccccc5)cn34)c2c1`, the GI50 is 362 nM and the TGI stood at 2.07 µM.

On to `CCCCCN(CCCCC)CC(O)c1cc(C)c2ccc3cc(C(C)C)ccc3c2c1` (stereo not given), for which the GI50 is 1740 nM and the TGI amounted to 3.29 µM.

For the compound `NC(=O)c1sc(-n2cnc3ccccc32)cc1OCc1ccccc1Br`, the GI50 is 340 nM and the TGI turned out to be 2.18 µM.

For `Cc1ccc(C(=O)/C(=C/c2ccc([N+](=O)[O-])cc2)SCc2ccc(Cl)cc2)cc1`, the GI50 is 2760 nM and the TGI was 7.46 µM.

Values taken from PubChem BioAssay (NCI).
